Test results taken from US12319659B2, “Selective ligand for dopamine D3 receptor, preparation method therefor, and pharmaceutical application thereof” (Shenzhen Linglan Bio-Pharmaceutical Technology Co., Ltd, priority 2017, dated 2025).

Legend:
dopamine D3 receptor [1] = molecular target: T1, dopamine D3 receptor (Homo sapiens, UniProt P35462); assay: cell-based
Procedure: (§3) Human embryonic kidney-293 cells were cultured in fresh MEM medium containing 10% fetal bovine serum, 100 units of penicillin, and 100 μg/mL streptomycin at 37° C. under 5% CO2. Cells were transfected with DNA plasmids of dopamine D2 and D3 receptors respectively by using polyethylenimine. After transfection for 4 hours, medium was replaced with fresh MEM medium containing fetal bovine serum and the cells were further cultured for 24 hours. The cells were seeded into 24-well plates and cultured for 14-16 hours or overnight. After the medium was discarded, the cells were rinsed with pre-cooled serum-free MEM. Radioligand ([^3H]-sulpiride) and various concentrations of compounds were added into the adherent cells, and incubated in a bath at 4° C. for 150 minutes. The cells were rinsed three times with pre-cooled MEM containing 10 mM HEPES to remove unbound ligands. After the medium was completely removed, the cells were lysed with 1% sodium lauryl sulfate. The remaining radioligands were detected with a liquid scintillation counter to calculate the relative amount of bound compounds.

dopamine D3 receptor [2] = molecular target: T1, dopamine D3 receptor
Procedure: as §3

dopamine D3 receptor [3] = molecular target: T1, dopamine D3 receptor; assay: Intrinsic functional experiment, CRE luciferase reporter gene assay, D3 receptor; assay type: cell-based; set-up: expressed in transfected cells; host or cells: Human embryonic kidney-293 cells; conditions: 2 μM forskolin, HEK-293 cells, quinpirole positive control
Procedure: (§1) Human embryonic kidney-293 cells were transfected with complementary DNA of human dopamine D2, D3 and D4 receptors and a luciferase reporter gene transcriptionally controlled by CRE. The cells transfected with an empty vector were used as a negative control. The cells were seeded into 24-well plates, and 2 μM of forskolin and various concentrations of compounds were added. Cells added with quinpirole were used as a positive control group. After four hours' incubation, cells were lysed with cell lysis buffer for 20 minutes and then centrifuged. The supernatant was reacted with 25 μL of luciferase substrate and the expression level of luciferase was detected by using a dual luciferase reporter vector kit.

dopamine D2 receptor [4] = molecular target: T2, dopamine D2 receptor (Homo sapiens, UniProt P14416); assay: Competitive inhibition test using radioligands ([3H]-sulpiride), D2 receptor; assay type: binding
T2 construct: expressed in transfected cells; host or cells: Human embryonic kidney-293 cells
Procedure: as §3

[5] = Solubility assay in water; assay type: physicochemical
Text: (§2) Solubility Assay of the D3 Receptor-Selective Ligand

dopamine D2 receptor [6] = molecular target: T2, dopamine D2 receptor; assay: Intrinsic functional experiment, CRE luciferase reporter gene assay, D2 receptor; assay type: cell-based; conditions: 2 μM forskolin, HEK-293 cells, quinpirole positive control
Procedure: as §1

[7] = Solubility assay in anhydrous ethanol; assay type: physicochemical; conditions: organic solvent or mixture
Text: as §2

[8] = molecular target: T3, human dopamine D4 receptor (Homo sapiens, UniProt P21917); assay: Intrinsic functional experiment, CRE luciferase reporter gene assay, D4 receptor; assay type: cell-based; conditions: 2 μM forskolin, HEK-293 cells, quinpirole positive control
T3 construct: expressed in transfected cells; host or cells: Human embryonic kidney-293 cells
T3 sequence (P21917 1-419): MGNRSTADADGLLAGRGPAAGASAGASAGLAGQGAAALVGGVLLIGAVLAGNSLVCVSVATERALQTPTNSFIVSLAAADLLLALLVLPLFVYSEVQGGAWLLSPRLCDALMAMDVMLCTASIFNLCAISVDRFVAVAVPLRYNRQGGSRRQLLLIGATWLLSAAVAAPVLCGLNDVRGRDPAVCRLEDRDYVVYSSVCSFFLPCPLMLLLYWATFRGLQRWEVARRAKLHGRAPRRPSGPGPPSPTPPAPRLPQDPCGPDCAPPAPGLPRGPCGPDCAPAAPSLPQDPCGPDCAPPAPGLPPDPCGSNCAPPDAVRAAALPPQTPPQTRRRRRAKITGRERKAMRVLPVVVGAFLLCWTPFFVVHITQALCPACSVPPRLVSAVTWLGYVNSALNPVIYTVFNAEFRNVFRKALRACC
Procedure: as §1

[9] = test system: 6-OHDA-induced Parkinson's disease rats; assay: Rotarod assay in 6-hydroxydopamine-induced Parkinson's disease rats; assay type: in vivo, Sprague Dawley (SD) rats; conditions: intraperitoneal for 3 days, 6-hydroxydopamine rats
Procedure: Experimental Sprague Dawley (SD) rats were randomly divided into an experimental group and a control group. After repeated behavior detection confirmed that there was no rotational behavior, the experiment was performed. Experimental group: rats were anesthetized with a mixture of xylazine (15 mg/kg, i.p.) and ketamine (100 mg/kg, i.p.), and then desipramine hydrochloride (25 mg/kg, s.c.) were used to protect noradrenergic neurons. 6 μg of 6-hydroxydopamine was dissolved in 2.3 μL of 0.9% sterile saline, and injected into the cerebral substantia nigra (antero-posterior −5.4 mm, […] from the bregma which was used as a zero coordinate) at a rate of 0.5 μL/min by using cerebral stereotaxic surgery. Rats in the control group were injected with the same dose of 0.9% sterile saline. After injection, the syringe needle was left in rats for 5 minutes before the needle was slowly withdrawn. After the rats awakened, they were placed in animal facilities for behavioral model evaluation to ensure that 6-hydroxydopamine induced the formation of a model with movement disorders and emotional/motivational disorders. Because hunger is prone to occur as a result of dopamine damage of the midbrain substantia nigra, 20% of rats were given high-calorie food for 1-2 weeks. After 19 days, the D3 receptor-selective ligand was continuously injected intraperitoneally for 3 days. Rats were allowed to accommodate the rotarod on days 19-20, and a rotarod assay was performed on days 21-22.

T2 sequence (P14416 whole entry): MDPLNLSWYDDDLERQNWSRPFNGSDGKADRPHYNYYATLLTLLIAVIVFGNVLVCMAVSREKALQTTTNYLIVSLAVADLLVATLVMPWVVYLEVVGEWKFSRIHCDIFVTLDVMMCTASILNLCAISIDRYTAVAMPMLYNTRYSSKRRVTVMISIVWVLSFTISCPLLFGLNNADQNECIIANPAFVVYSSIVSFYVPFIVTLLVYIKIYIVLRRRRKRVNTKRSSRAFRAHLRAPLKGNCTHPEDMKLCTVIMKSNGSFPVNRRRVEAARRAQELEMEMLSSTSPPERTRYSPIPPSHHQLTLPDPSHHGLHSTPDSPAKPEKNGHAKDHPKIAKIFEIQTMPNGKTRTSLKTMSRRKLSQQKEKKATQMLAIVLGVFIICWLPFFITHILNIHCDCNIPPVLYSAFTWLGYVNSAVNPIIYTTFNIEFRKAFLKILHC
T1 sequence (P35462 whole entry): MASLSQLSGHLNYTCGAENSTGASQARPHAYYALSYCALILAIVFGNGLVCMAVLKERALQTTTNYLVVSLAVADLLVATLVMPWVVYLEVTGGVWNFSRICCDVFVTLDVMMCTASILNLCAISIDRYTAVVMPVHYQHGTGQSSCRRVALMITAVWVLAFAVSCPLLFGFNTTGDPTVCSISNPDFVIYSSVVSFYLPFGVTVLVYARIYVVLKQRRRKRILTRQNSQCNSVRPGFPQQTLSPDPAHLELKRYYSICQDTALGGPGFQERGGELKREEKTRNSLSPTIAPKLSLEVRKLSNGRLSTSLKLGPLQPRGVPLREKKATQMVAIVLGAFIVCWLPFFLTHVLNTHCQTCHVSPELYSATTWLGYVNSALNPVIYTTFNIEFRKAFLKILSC

Ki (dopamine D3 receptor [1]): 7.4 nM
selectivity ratio (dopamine D3 receptor [2]): > 10000
Ki (dopamine D2 receptor [4]; [3H]-sulpiride competition, HEK-293 cells, read-out: KiD2R): > 79600 nM
inhibition (dopamine D2 receptor [4]; […], arylpiperazine-arylurea compounds at 100 nM, [3H]-sulpiride, HEK-293 cells (Table 2), read-out: D2 Receptor Displacement (%)): 10.2 ± 6.7%
activation of signaling pathways downstream of D2 receptors (dopamine D2 receptor [6]): didn't activate
solubility ([7]; 3.3 mg/mL): > 3.3 mg/mL
solubility ([7]; 5 mg/mL): < 5 mg/mL
solubility ([7]; 10 mg/mL): < 5 mg/mL
activation of signaling pathways downstream of D4 receptors (printed as D3 receptors) [8]: didn't activate
SMILES: O=C(NCCCCN1CCN(c2ccc(Cl)cc2)CC1)Nc1cnc2ccccc2c1 [Compound 8i, 1-(4-(4-(4-chlorophenyl)piperazin-1-yl)butyl)-3-(quinolin-3-yl)urea]
activation of signaling pathways downstream of D3 receptors (dopamine D3 receptor [3]): activated signaling pathways downstream of D3 receptors
Solubility in water ([5]; 1 mg/mL): + (+ indicates that the compound was completely dissolved)
Solubility in water ([5]; 3 mg/mL): − (− indicates that the compound was un-dissolved or not completely dissolved)
Solubility in water ([5]; 6 mg/mL): − (− indicates that the compound was un-dissolved or not completely dissolved)
Solubility in water ([5]; 12 mg/mL): − (− indicates that the compound was un-dissolved or not completely dissolved)
frequency of falling [9]: reduced the frequency of falling
latency to fall [9]: increased the latency to fall
